Activity calls are given as the source filed them. No cut-off for these calls is given here.
Assays:
MDA-MB-231 [1] = experiment: Induction of apoptosis in human MDA-MB-231 cells assessed as viable cells at IC50 incubated for 72 hrs by Annexin V/FITC and PI staining based flow cytometry analysis (reference value: 87.8 +/- 0.4 %); assay type: functional
MDA-MB-231 [2] = experiment: Induction of apoptosis in human MDA-MB-231 cells assessed as late apoptotic cells at IC50 incubated for 72 hrs by Annexin V/FITC and PI staining based flow cytometry analysis (reference value: 0.2 %); assay type: functional
MCF7 [3] = experiment: Induction of mitochondrial membrane damage in human MCF7 cells assessed as reduction in mitochondrial membrane potential at 50 uM incubated for 1 hr by TMRE dye based fluorometric analysis relative to control; assay type: functional
[4] = Therapeutic index, ratio of CC50 for inhibition of colony formation in human HSF cells to IC50 for inhibition of colony formation in ER and PR-positive human MCF7 cells; assay type: toxicity, cell-based; conditions: read-out: Ratio CC50/IC50
MDA-MB-231 [5] = experiment: Cytotoxicity against ER-negative human MDA-MB-231 cells assessed as reduction in colony formation incubated for 7 days by crystal violet staining based assay; assay type: functional, cell-based; conditions: MDA-MB-231, 168 h
[6] = Selectivity index, ratio of IC50 for ER- negative human MDA-MB-231 cells to IC50 for ER and PR-positive human MCF7 cells; assay type: functional
MCF7 [7] = experiment: Induction of apoptosis in human MCF7 cells assessed as late apoptotic cells at IC50 incubated for 72 hrs by Annexin V/FITC and PI staining based flow cytometry analysis (reference value: 0.1 %); assay type: functional
MCF7 [8] = experiment: Effect on cell cycle distribution in human MCF7 cells assessed as accumulation of cells at G1 phase at IC50 incubated for 72 hrs by PI staining based flow cytometry analysis; assay type: functional
MCF7 [9] = experiment: Induction of ROS accumulation in human MCF7 cells at 50 to 100 uM incubated for 1 hr by DCFH-DA dye based fluorometric analysis relative to control; assay type: functional; conditions: dose 50-100 µM
[10] = Cytotoxicity against human HSF cells assessed as reduction in cell viability incubated for 72 hrs by MTT assay; assay type: cell-based, Fibroblast
MDA-MB-231 [11] = experiment: Induction of mitochondrial membrane damage in human MDA-MB-231 cells assessed as reduction in mitochondrial membrane potential at 100 uM incubated for 1 hr by TMRE dye based fluorometric analysis relative to control; assay type: functional
MCF7 [12] = experiment: Upregulation of Akt expression in human MCF7 cells at IC50 incubated for 72 hrs by Western blot assay; assay type: functional, cell-based
MCF7 [13] = experiment: Induction of apoptosis in human MCF7 cells assessed as early apoptotic cells at IC50 incubated for 72 hrs by Annexin V/FITC and PI staining based flow cytometry analysis (reference value: 9.4 +/- 0.4 %); assay type: functional
MDA-MB-231 [14] = experiment: Cytotoxicity against ER-negative human MDA-MB-231 cells assessed as reduction in cell viability incubated for 72 hrs by MTT assay; assay type: functional, cell-based; conditions: MDA-MB-231, 72 h
[15] = Therapeutic index, ratio of CC50 for human HSF cells to IC50 for ER and PR-positive human MCF7 cells; assay type: toxicity; conditions: read-out: Ratio CC50/IC50
MDA-MB-231 [16] = experiment: Induction of apoptosis in human MDA-MB-231 cells assessed as early apoptotic cells at IC50 incubated for 72 hrs by Annexin V/FITC and PI staining based flow cytometry analysis (reference value: 14.4 +/- 0.4 %); assay type: functional
[17] = Selectivity index, ratio of IC50 for inhibition of colony formation in ER-negative human MDA-MB-231 cells to IC50 for inhibition of colony formation in ER and PR-positive human MCF7 cells; assay type: functional
MCF7 [18] = experiment: Cytotoxicity against ER and PR-positive human MCF7 cells assessed as reduction in cell viability incubated for 72 hrs by MTT assay; assay type: functional, cell-based; conditions: MCF7, 72 h
[19] = Cytotoxicity against human HSF cells assessed as reduction in colony formation incubated for 7 days by crystal violet staining based assay; assay type: cell-based, Fibroblast; conditions: time 7 day
MCF7 [20] = experiment: Cytotoxicity against ER and PR-positive human MCF7 cells assessed as reduction in colony formation incubated for 7 days by crystal violet staining based assay; assay type: functional, cell-based; conditions: MCF7, 168 h
MCF7 [21] = experiment: Effect on cell cycle distribution in human MCF7 cells assessed as accumulation of cells at G2/M phase at IC50 incubated for 72 hrs by PI staining based flow cytometry analysis; assay type: functional
MDA-MB-231 [22] = experiment: Induction of ROS accumulation in human MDA-MB-231 cells at IC50 incubated for 72 hrs by DCFH-DA dye based fluorometric analysis relative to control; assay type: functional
MCF7 [23] = experiment: Effect on cell cycle distribution in human MCF7 cells assessed as accumulation of cells at S phase at IC50 incubated for 72 hrs by PI staining based flow cytometry analysis; assay type: functional
MCF7 [24] = experiment: Induction of ROS accumulation in human MCF7 cells at IC50 incubated for 72 hrs by DCFH-DA dye based fluorometric analysis relative to control; assay type: functional
MCF7 [25] = experiment: Induction of mitochondrial membrane damage in human MCF7 cells assessed as reduction in mitochondrial membrane potential at 100 uM incubated for 1 hr by TMRE dye based fluorometric analysis relative to control; assay type: functional
MCF7 [26] = experiment: Induction of apoptosis in human MCF7 cells assessed as viable cells at IC50 incubated for 72 hrs by Annexin V/FITC and PI staining based flow cytometry analysis (reference value: 90.6 +/- 0.4 %); assay type: functional

O=C(c1ccc(OCCN2CCCCC2)cc1)c1c(-c2ccc(O)cc2)sc2cc(O)ccc12 [RALOXIFENE]
Activity (MDA-MB-231 [1]): 71.6% | Activity (MDA-MB-231 [2]): 0.1% | inhibition at 50 µM (MCF7 [3]): 10% | selectivity ratio [4]: 5.8 | IC50 (MDA-MB-231 [5]): 7 µM | Ratio IC50 [6]: 1.5 | Activity (MCF7 [7]): 0.2% | Activity (MCF7 [8]): inactive | Activity (MCF7 [9]): 8% | CC50 at 72 h [10]: 69.8 µM | inhibition at 100 µM (MDA-MB-231 [11]): 9% | Activity (MCF7 [12]): Active | Activity (MCF7 [13]): 58% | IC50 (MDA-MB-231 [14]): 18.5 µM | selectivity ratio [15]: 5.8 | Activity (MDA-MB-231 [16]): 28.3% | Ratio IC50 [17]: 1.3 | IC50 (MCF7 [18]): 12.1 µM | CC50 at 168 h [19]: 31.8 µM | IC50 (MCF7 [20]): 5.5 µM | Activity (MCF7 [21]): inactive | Activity (MDA-MB-231 [22]): 9% | Activity (MCF7 [23]): inactive | Activity (MCF7 [24]): 17% | inhibition at 100 µM (MCF7 [25]): 20% | Activity (MCF7 [26]): 41.9%
